Source: US20230303564A1, “PYRIMIDINE RING COMPOUND” (MEDSHINE DISCOVERY INC., priority 2020, published 2023)

Assays:
CDK2/CyclinE1 = CDK2/CyclinE1 (Homo sapiens (Human), UniProt P24941); assay: CDK2/CyclinE1 enzyme activity test (ADP-Glo); assay type: biochemical; conditions: 150 μM ATP, 25° C. 60 minutes, read-out: CDK2/Cyclin E1 IC50
Method: CDK2/CyclinE1 Enzyme Reaction System
(§1) Enzymes, substrates, ATP, and inhibitors were diluted by kinase buffer in the kit. The compounds to be tested were diluted 5-fold with a multi-channel pipette to the eighth concentration, that is, from 50 μM to 0.65 nM, the concentration of DMSO was 5%, and a double-hole experiment was set up. 1 μL of each concentration gradient of inhibitors, 2 μL of CDK2/CyclinE1 enzyme (2 ng), 2 μL mixture of substrate and ATP (150 μM ATP, 0.1 μg/μL substrate) were added to the microplates, and the final concentration gradient of the compound was 10 μM to 0.13 nM. The reaction system was reacted at 25° C. for 60 minutes. After the reaction, 5 μL of ADP-Glo reagent was added to each well, the reaction was carried out at 25° C. for 40 minutes, after the reaction was completed, 10 μL of kinase detection reagent was added to each well, the reaction was carried out at 25° C. for 30 minutes, the multiple label analyzer was used to read the chemiluminescence with an integration time of 0.5 seconds.
(§2) The equation (Sample−Min)/(Max−Min)*100% was used to convert the raw data into inhibition rate, and the value of IC50 can be obtained by curve fitting with four parameters (obtained by log (inhibitor) vs. response-Variable slope mode in GraphPad Prism). The enzymatic inhibitory activity of the compounds of the present disclosure on CDK1/CyclinB1, CDK2/CyclinA2, CDK2/CyclinE1, CDK4/CyclinD1, CDK6/CyclinD1, CDK7/CyclinH/MAT1, CDK9/CyclinT1 was provided in Table 1.

CDK9/CyclinT1 = CDK9/CyclinT1 (Homo sapiens (Human), UniProt P50750); assay: CDK9/CyclinT1 enzyme activity test (ADP-Glo); assay type: biochemical; conditions: 100 μM ATP, 25° C. 120 minutes, read-out: CDK 9/Cyclin T1 IC50
CDK9/CyclinT1, sequence (P50750 whole entry): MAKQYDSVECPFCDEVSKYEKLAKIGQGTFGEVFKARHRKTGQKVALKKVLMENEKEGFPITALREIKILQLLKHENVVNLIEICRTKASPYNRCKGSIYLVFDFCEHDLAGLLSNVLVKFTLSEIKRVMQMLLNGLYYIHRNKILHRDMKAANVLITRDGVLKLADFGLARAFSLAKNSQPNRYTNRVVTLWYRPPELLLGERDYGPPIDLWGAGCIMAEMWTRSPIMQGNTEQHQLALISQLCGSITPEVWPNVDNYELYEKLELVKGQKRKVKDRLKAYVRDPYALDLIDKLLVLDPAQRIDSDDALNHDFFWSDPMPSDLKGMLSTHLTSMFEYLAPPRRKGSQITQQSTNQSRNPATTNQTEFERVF
CDK9/CyclinT1, sequence (O60563 whole entry partner): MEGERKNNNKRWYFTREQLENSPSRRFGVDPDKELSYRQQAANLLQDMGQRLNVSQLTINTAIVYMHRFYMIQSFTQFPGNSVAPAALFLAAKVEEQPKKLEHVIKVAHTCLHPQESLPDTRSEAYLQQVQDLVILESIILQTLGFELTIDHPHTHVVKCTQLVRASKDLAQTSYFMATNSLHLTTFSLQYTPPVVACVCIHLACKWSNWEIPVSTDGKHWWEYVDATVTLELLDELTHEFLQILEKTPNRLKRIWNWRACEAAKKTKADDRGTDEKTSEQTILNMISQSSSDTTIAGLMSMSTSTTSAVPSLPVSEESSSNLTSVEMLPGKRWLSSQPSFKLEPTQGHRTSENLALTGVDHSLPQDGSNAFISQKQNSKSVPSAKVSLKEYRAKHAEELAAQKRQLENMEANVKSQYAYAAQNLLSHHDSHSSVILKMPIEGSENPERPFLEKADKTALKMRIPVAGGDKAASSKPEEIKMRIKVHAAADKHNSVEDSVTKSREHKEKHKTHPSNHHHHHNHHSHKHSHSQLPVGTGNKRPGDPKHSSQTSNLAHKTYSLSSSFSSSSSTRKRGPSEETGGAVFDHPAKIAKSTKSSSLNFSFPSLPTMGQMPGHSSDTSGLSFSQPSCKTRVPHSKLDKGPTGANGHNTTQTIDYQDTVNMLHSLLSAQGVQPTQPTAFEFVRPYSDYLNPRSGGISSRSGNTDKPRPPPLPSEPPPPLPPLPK
Method: CDK9/CyclinT1 Enzyme Reaction System
as §1, with “of CDK9/CyclinT1” for “of CDK2/CyclinE1”, “enzyme (4” for “enzyme (2”, “ATP (100” for “ATP (150”, “ATP, 0.2” for “ATP, 0.1”, “for 120” for “for 60”
as §2

CDK6/CyclinD1 = CDK6/CyclinD1 (Homo sapiens (Human), UniProt Q00534); assay: CDK6/CyclinD1 enzyme activity test (LANCE Ultra TR-FRET); assay type: biochemical; conditions: 250 μM ATP, 25° C. 120 minutes, read-out: CDK6/Cyclin D1 IC50
CDK6/CyclinD1, sequence (Q00534 whole entry): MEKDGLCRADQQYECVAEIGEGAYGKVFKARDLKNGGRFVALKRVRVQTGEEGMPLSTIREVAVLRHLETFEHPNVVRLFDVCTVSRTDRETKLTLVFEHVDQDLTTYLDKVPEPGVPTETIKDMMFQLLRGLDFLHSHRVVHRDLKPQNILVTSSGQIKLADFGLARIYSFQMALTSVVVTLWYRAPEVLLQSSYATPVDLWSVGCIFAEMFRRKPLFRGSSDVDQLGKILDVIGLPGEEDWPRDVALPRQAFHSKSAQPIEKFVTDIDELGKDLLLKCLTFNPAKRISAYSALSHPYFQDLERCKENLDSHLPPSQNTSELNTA
CDK6/CyclinD1, sequence (P24385 whole entry partner): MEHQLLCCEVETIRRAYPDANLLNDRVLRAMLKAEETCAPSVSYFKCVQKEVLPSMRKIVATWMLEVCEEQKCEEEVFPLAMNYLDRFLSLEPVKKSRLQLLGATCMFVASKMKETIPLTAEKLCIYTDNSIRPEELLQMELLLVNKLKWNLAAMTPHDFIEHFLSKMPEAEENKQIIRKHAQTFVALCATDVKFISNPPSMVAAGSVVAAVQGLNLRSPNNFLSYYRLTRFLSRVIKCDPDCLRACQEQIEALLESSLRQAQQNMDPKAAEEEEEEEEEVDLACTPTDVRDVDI
Method: CDK6/CyclinD1 Enzyme Reaction System
Preparation of Kinase Buffer:
The composition of the buffer: 50 mM of hydroxyethylpiperazine ethanesulfonic acid solution at pH 7.5, 1 mM of ethylenediaminetetraacetic acid, 10 mM of magnesium chloride, 0.01% Brij-35, and 2 mM of dithiothreitol.
Enzymes, substrate LANCE Ultra ULight™-4E-BP-1(Thr37146) Peptide, ATP, and inhibitors were diluted by kinase buffer.
The compounds to be tested were diluted 5-fold with a multi-channel pipette to the eighth concentration, that is, from 40 μM to 0.512 nM, the concentration of DMSO was 4%, and a double-hole experiment was set up. […] The reaction system was reacted at 25° C. for 120 minutes. After the reaction, 5 μL mixture of EDTA and 2× LANCE™ Detection Buffer (1:1) were added to each well, the reaction was carried out at 25° C. for 5 minutes, after the reaction was completed, 5 μL of LANCE Ultra Eu-anti-P-4E-BP1(Thr37MS) (4 nM) was added to each well, the reaction was carried out at 25° C. for 60 minutes, the reaction signal was detected by Nivo instrument according to the principle of time-resolved fluorescence resonance energy transfer.
as §2

[1] = system: human ovarian cancer OVCAR-3 cells subcutaneous xenograft tumor; assay: In vivo efficacy study, OVCAR-3 subcutaneous xenograft tumor BALB/c nude mouse model; conditions: for Tumor volume (Day 0): Day 0 (at grouping), OVCAR-3 xenograft, BALB/c nude mice; for Tumor volume (Day 7): 10 mg/kg from day 0 to day 7; for Tumor volume (Day 14): 10 mg/kg from day 0 to day 14; for Tumor volume (Day 21): 10 mg/kg day 0 to day 14, 30 mg/kg from day 14 to day 21
Method: In vivo efficacy study of human ovarian cancer OVCAR-3 cells subcutaneous xenograft tumor BALB/c nude mouse model
Cell culture: Human ovarian cancer OVCAR-3 cells were monolayer cultured in vitro, the culture conditions were 10% fetal bovine serum, 100 U/mL Penicillin and 100 μg/mL Streptomycin were added in RPMI 1640 medium, cultured at 37° C. 5% CO2 incubator. Conventional digestion with trypsin-EDTA was performed for passage. When the cell saturation was 80%/90% and the number reached the required level, the cells were collected, counted, and inoculated.
Animals: BALB/c nude mice, female, 6-8 weeks old, weighed 18-22 grams. A total of 95 (42+ additional 53) animals were needed, provided by the Experimental Animal Management Department of Shanghai Institute of Family Planning Sciences (formerly Shanghai Sipulbichem).
Tumor inoculation: 0.2 mL (1×10^7) OVCAR-3 cells (with matrix glue, volume ratio of 1:1) were subcutaneously inoculated on the right back of each mouse, and the mice were grouped administrated when the average tumor volume reached about 150 mm^3.
Dosage and frequency of administration: Day 0 to Day 7, 10 mg/kg; Day 7 to Day 14, 10 mg/kg; Day 14 to Day 21, 30 mg/kg;
Experimental index: The experimental index was used to examine whether tumor growth was inhibited, delayed or cured. Tumor diameters were measured with vernier calipers twice a week. The calculation formula of tumor volume was: V=0.5a×b^2, wherein a and b represented the long and short diameters of the tumor, respectively.

Row | IC50 (CDK2/CyclinE1) | IC50 (CDK9/CyclinT1) | IC50 (CDK6/CyclinD1) | SMILES | Tumor volume (Day 0) [1] | Tumor volume (Day 7) [1] | Tumor volume (Day 14) [1] | Tumor volume (Day 21) [1]
1 | 3.52 nM | 36.9 nM | 1.36 nM | CS(=O)(=O)N1CCC(Nc2ncc3cc(C(F)F)nc(N[C@@H]4CCCC4(F)F)c3n2)CC1 (single isomer, unassigned) [Compound 22] | 151 mm^3 | 243 mm^3 | 319 mm^3 | 238 mm^3
2 | 4.73 nM | 178 nM | 1.15 nM | Cc1cn(C)nc1Nc1nc(C(F)F)cc2cnc(NC3CCN(S(C)(=O)=O)CC3)nc12 [Compound 19] | 151 mm^3 | 246 mm^3 | 375 mm^3 | 392 mm^3
3 | 1.33 nM | 106 nM | 0.56 nM | Cn1cc(Cl)c(Nc2nc(C(F)F)cc3cnc(NC4CCN(S(C)(=O)=O)CC4)nc23)n1 [Compound 20] | 151 mm^3 | 236 mm^3 | 338 mm^3 | 363 mm^3
